Experimental findings from patent publication US8119643B2, “Benzoimidazolyl-pyrazine compounds for inflammation and immune-related uses” (Synta Pharmaceuticals Corp., priority 2006, dated 2012) are described below.

Molecules are shown by their SMILES. Where only a bound is given, the exact number is not on record here.

For the assay, the system named is IL-2 production. The experiment in a line: Inhibition of IL-2 production in PHA-activated Jurkat cells (ELISA). The assay is classed as cell-based. The conditions noted are these: Homo sapiens, PHA 2.5 μg/mL, 20 hours, IL-2 ELISA. The protocol:
Jurkat cells were placed in a 96 well plate (0.5 million cells per well in 1% FBS medium) then a test compound of this invention was added at different concentrations. After 10 minutes, the cells were activated with PHA (final concentration 2.5 μg/mL) and incubated for 20 hours at 37° C. under CO2. The final volume was 200 μL. Following incubation, the cells were centrifuged and the supernatants were collected and stored at −70° C. prior to assaying for IL-2 production. A commercial ELISA kit (IL-2 Eli-pair, Diaclone Research, Besancon, France) was used to detect production of IL-2, from which dose response curves were obtained. The IC50 value was calculated as the concentration at which 50% of maximum IL-2 production after stimulation was inhibited versus a non-stimulation control.
Turning to `COc1ccc(C(=O)Nc2cnc(-n3c(C(F)(F)F)nc4cc(OC)ccc43)cn2)c(F)c1` [Compound 127, 2-Fluoro-4-methoxy-N-[5-(5-methoxy-2-trifluoromethyl-benzoimidazol-1-yl)-pyrazin-2-yl]-benzamide], the IC50 – broadly, the midpoint of a concentration-inhibition curve – amounted to 105 nM. `COc1ccc2c(c1)nc(C(F)(F)F)n2-c1cnc(NC(=O)c2cc(F)c(F)cc2F)cn1` [Compound 143, 2,4,5-Trifluoro-N-[5-(5-methoxy-2-trifluoromethyl-benzoimidazol-1-yl)-pyrazin-2-yl]-benzamide] showed an IC50 of 178 nM.

Compound `COc1ccc2c(c1)nc(C(F)(F)F)n2-c1cnc(NC(=O)c2ccccc2Br)cn1` [Compound 85, 2-Bromo-N-[5-(5-methoxy-2-trifluoromethyl-benzoimidazol-1-yl)-pyrazin-2-yl]-benzamide] registered an IC50 of 37 nM. Compound `COc1ccc2c(c1)nc(C(F)(F)F)n2-c1cnc(NC(=O)c2cccc(OC)c2OC)cn1` [Compound 128, 2,3-Dimethoxy-N-[5-(5-methoxy-2-trifluoromethyl-benzoimidazol-1-yl)-pyrazin-2-yl]-benzamide] returned a half-maximal inhibitory concentration (IC50) of 187 nM. Turning to `COc1ccc2c(c1)nc(C(F)(F)F)n2-c1cnc(NCc2c(F)cccc2F)cn1` [Compound 37, (2,6-Difluoro-benzyl)-[5-(5-methoxy-2-trifluoromethyl-benzoimidazol-1-yl)-pyrazin-2-yl]-amine], inhibition was half-maximal at 103 nM (IC50).

Regarding `COc1ccc2c(c1)nc(C(F)(F)F)n2-c1cnc(NC(=O)c2cccc(C#N)c2)cn1` [Compound 101, 3-Cyano-N-[5-(5-methoxy-2-trifluoromethyl-benzoimidazol-1-yl)-pyrazin-2-yl]-benzamide], the IC50 was 96 nM. As for `COc1ccc2c(c1)nc(C(F)(F)F)n2-c1cnc(NC(=O)c2cc([N+](=O)[O-])ccc2C)cn1` [Compound 146, N-[5-(5-Methoxy-2-trifluoromethyl-benzoimidazol-1-yl)-pyrazin-2-yl]-2-methyl-5-nitro-benzamide], the figure is 18 nM; as for `COc1ccc2c(c1)nc(C(F)(F)F)n2-c1cnc(NC(=O)c2ccc([N+](=O)[O-])c(OC)c2)cn1` [Compound 147, 3-Methoxy-N-[5-(5-methoxy-2-trifluoromethyl-benzoimidazol-1-yl)-pyrazin-2-yl]-4-nitro-benzamide], above 1000 nM. As to `COc1ccc2c(c1)nc(C(F)(F)F)n2-c1cnc(NC(=O)c2ccc(Cl)cc2)cn1` [Compound 91, 4-Chloro-N-[5-(5-methoxy-2-trifluoromethyl-benzoimidazol-1-yl)-pyrazin-2-yl]-benzamide], half-maximal inhibition (IC50) required 384 nM.

`COc1ccc2c(c1)nc(C(F)(F)F)n2-c1cnc(NC(=O)c2ccc(C)c([N+](=O)[O-])c2)cn1` [Compound 140, N-[5-(5-Methoxy-2-trifluoromethyl-benzoimidazol-1-yl)-pyrazin-2-yl]-4-methyl-3-nitro-benzamide] gave an IC50 of 192 nM. `COc1ccc2c(c1)nc(C(F)(F)F)n2-c1cnc(NC(=O)c2ccncc2F)cn1` [Compound 3, 3-Fluoro-N-[5-(5-methoxy-2-trifluoromethyl-benzoimidazol-1-yl)-pyrazin-2-yl]-isonicotinamide] came in with an IC50 of 79 nM. As for `COc1ccc2c(c1)nc(C(F)(F)F)n2-c1cnc(NC(=O)c2cccc(F)c2)cn1` [Compound 88, 3-Fluoro-N-[5-(5-methoxy-2-trifluoromethyl-benzoimidazol-1-yl)-pyrazin-2-yl]-benzamide], the figure is 101 nM; as for `COc1ccc2c(c1)nc(C(F)(F)F)n2-c1cnc(NC(=O)c2ccc(Cl)cc2Cl)cn1` [Compound 110, 2,4-Dichloro-N-[5-(5-methoxy-2-trifluoromethyl-benzoimidazol-1-yl)-pyrazin-2-yl]-benzamide], 19 nM. As for `COc1ccc(C(=O)Nc2cnc(-n3c(C(F)(F)F)nc4cc(OC)ccc43)cn2)cc1` [Compound 120, 4-Methoxy-N-[5-(5-methoxy-2-trifluoromethyl-benzoimidazol-1-yl)-pyrazin-2-yl]-benzamide], the figure is 295 nM; as for `COc1ccc2c(c1)nc(C(F)(F)F)n2-c1cnc(NCC2CCCCC2)cn1` [Compound 73, Cyclohexylmethyl-[5-(5-methoxy-2-trifluoromethyl-benzoimidazol-1-yl)-pyrazin-2-yl]-amine], above 1000 nM; as for `COc1ccc2c(c1)nc(C(F)(F)F)n2-c1cnc(NC(=O)c2ccc(OC)c(OC)c2)cn1` [Compound 126, 3,4-Dimethoxy-N-[5-(5-methoxy-2-trifluoromethyl-benzoimidazol-1-yl)-pyrazin-2-yl]-benzamide], above 1000 nM. In the case of `COc1ccc2c(c1)nc(C(F)(F)F)n2-c1cnc(NC(=O)c2cccc(C)c2[N+](=O)[O-])cn1` [Compound 142, N-[5-(5-Methoxy-2-trifluoromethyl-benzoimidazol-1-yl)-pyrazin-2-yl]-3-methyl-2-nitro-benzamide] it was 324 nM; in that of `COc1ccc2c(c1)nc(C(F)(F)F)n2-c1cnc(NC(=O)c2cccc(Cl)c2Cl)cn1` [Compound 113, 2,3-Dichloro-N-[5-(5-methoxy-2-trifluoromethyl-benzoimidazol-1-yl)-pyrazin-2-yl]-benzamide], 22 nM. As for `CCOC(=O)c1cccc(C(=O)Nc2cnc(-n3c(C(F)(F)F)nc4cc(OC)ccc43)cn2)c1` [Compound 114, N-[5-(5-Methoxy-2-trifluoromethyl-benzoimidazol-1-yl)-pyrazin-2-yl]-isophthalamic acid ethyl ester], the 50% inhibitory concentration (IC50) is 88 nM. As for `COc1ccc2c(c1)nc(C(F)(F)F)n2-c1cnc(NC(=O)c2ccccc2F)cn1` [Compound 5, 2-Fluoro-N-[5-(5-methoxy-2-trifluoromethyl-benzoimidazol-1-yl)-pyrazin-2-yl]-benzamide], the IC50 was found to be 20 nM. In the case of `COc1ccc2c(c1)nc(C(F)(F)F)n2-c1cnc(NC(=O)c2ccc(F)c(F)c2F)cn1` [Compound 149, 2,3,4-Trifluoro-N-[5-(5-methoxy-2-trifluoromethyl-benzoimidazol-1-yl)-pyrazin-2-yl]-benzamide] it was 88 nM; in that of `COc1ccc2c(c1)nc(C(F)(F)F)n2-c1cnc(NC(=O)c2ccccc2C(F)(F)F)cn1` [Compound 145, N-[5-(5-Methoxy-2-trifluoromethyl-benzoimidazol-1-yl)-pyrazin-2-yl]-2-trifluoromethyl-benzamide], 99 nM; in that of `COc1ccc2c(c1)nc(C(F)(F)F)n2-c1cnc(NC(=O)c2cccc(Br)c2)cn1` [Compound 108, 3-Bromo-N-[5-(5-methoxy-2-trifluoromethyl-benzoimidazol-1-yl)-pyrazin-2-yl]-benzamide], 57 nM. As for `COc1ccc2c(c1)nc(C(F)(F)F)n2-c1cnc(NCc2ccccc2C)cn1` [Compound 46, [5-(5-Methoxy-2-trifluoromethyl-benzoimidazol-1-yl)-pyrazin-2-yl]-(2-methyl-benzyl)-amine], the figure is above 1000 nM; as for `COc1ccc2c(c1)nc(C(F)(F)F)n2-c1cnc(NC(=O)c2cc(Br)ccc2F)cn1` [Compound 130, 5-Bromo-2-fluoro-N-[5-(5-methoxy-2-trifluoromethyl-benzoimidazol-1-yl)-pyrazin-2-yl]-benzamide], 130 nM; as for `COc1ccc2c(c1)nc(C(F)(F)F)n2-c1cnc(NC(=O)c2cccc(SC)c2)cn1` [Compound 95, N-[5-(5-Methoxy-2-trifluoromethyl-benzoimidazol-1-yl)-pyrazin-2-yl]-3-methylsulfanyl-benzamide], 489 nM. In the case of `COc1cccc(CNc2cnc(-n3c(C(F)(F)F)nc4cc(OC)ccc43)cn2)c1` [Compound 103, (3-Methoxy-benzyl)-[5-(5-methoxy-2-trifluoromethyl-benzoimidazol-1-yl)-pyrazin-2-yl]-amine] it was above 1000 nM. Compound `CCCCCc1ccc(C(=O)Nc2cnc(-n3c(C(F)(F)F)nc4cc(OC)ccc43)cn2)cc1` [Compound 131, N-[5-(5-Methoxy-2-trifluoromethyl-benzoimidazol-1-yl)-pyrazin-2-yl]-4-pentyl-benzamide] registered an IC50 of 331 nM. In the case of `O=C(Nc1cnc(-n2c(C(F)(F)F)nc3cc(-c4ncco4)ccc32)cn1)c1c(F)cccc1F` [Compound 153, 2,6-Difluoro-N-[5-(5-oxazol-2-yl-2-trifluoromethyl-benzoimidazol-1-yl)-pyrazin-2-yl]-benzamide] it was 15 nM; in that of `CCOc1ccccc1C(=O)Nc1cnc(-n2c(C(F)(F)F)nc3cc(OC)ccc32)cn1` [Compound 123, 2-Ethoxy-N-[5-(5-methoxy-2-trifluoromethyl-benzoimidazol-1-yl)-pyrazin-2-yl]-benzamide], above 1000 nM. With `COc1ccc(CNc2cnc(-n3c(C(F)(F)F)nc4cc(OC)ccc43)cn2)cc1` [Compound 90, (4-Methoxy-benzyl)-[5-(5-methoxy-2-trifluoromethyl-benzoimidazol-1-yl)-pyrazin-2-yl]-amine], the IC50 was above 1000 nM.
